The text below walks through data of US11548897B2, “Crystalline forms of a triazolopyrimidine compound” (NOVARTIS AG, priority 2016, dated 2023).

Structures are written as SMILES. A value given as a limit tells only on which side of the number the result lay.

Series [1] concerns H3K27 methylation in G401 cell. Nature of the series: ELISA (H3K27 methylation) assay. The format is cell-based. To be noted: Homo sapiens, G-401; ELISA Qualified, G401 cells, 48 h; read-out: (c) IC50. Here is the method: ELISA (H3K27 Methylation) Assay
Representative compounds of the present invention were serially and separately diluted 3-fold in DMSO to obtain a total of eight or twelve concentrations. Then the compounds were added to G401 cell cultured in 384-well plate at 1:500 dilution to obtain the highest concentration of 20 μM. The cells were further cultured for 48 h before ELISA procedure.
Histone extraction: Cells, in 384-well plate, were washed with PBS (10×PBS buffer (80 g NaCl (Sigma, S3014), 2 g KCl (Sigma, 60128), 14.4 g Na2HPO4 (Sigma, S5136), 2.4 g KH2PO4 (Sigma, P9791) to 1 L water, pH to 7.4) and lysed with the addition of lysis buffer (0.4N HCl; 45 μL per well). The plate was gently agitated at 4° C. for 30 min. The cell lysate was neutralized with neutralization buffer (0.5 M sodium phosphate dibasic, pH 12.5, 1 mM DTT; 36 μL per well). The plate was agitated to ensure the lysates were well mixed prior to the ELISA protocol.
ELISA protocol: Cell lysates were transferred to the wells of a 384-well plate and the final volume was adjusted to 50 μL per well with PBS. The plate was sealed, centrifuged at 2,000 rpm for 2 min and incubated at 4° C. for about 16 h. […] The signal was read using a PerkinElmer Envision Reader. The H3K27 methylation readouts were normalized using H3 signal and then percentage inhibition was calculated against the samples treated with DMSO. […]

Series [2] can be described thus: Solubility in selected solvents (Table 2). Type of series: physicochemical. To be noted: thermodynamic from solid; for solubility at 2 h: 50° C.; for solubility: rt. Here is the method:
To 10 mg of compound X in a sample vial at 50° C., selected solvent was added dropwise. The addition of solvent was stopped when a clear solution was reached or when the amount of solvent reached 1 mL. The resulting mixture was stirred continuously at 50° C. for 2 h, then cooled to rt, and stirred overnight. The solubilities at 50° C. and rt were determined by the homogeneity of the resulting mixture.

Series [3] can be described thus: Rodent pharmacokinetic studies, exposure versus dose. The format is in vivo. To be noted: higher doses.
The nature of series [4]: Aqueous solubility (pH 7.4, simulated gastric fluid). Type of series: physicochemical.
For series [5], the system named is B cell lymphoma cell KARPAS422. Nature of the series: Analysis of cell proliferation. To be noted: Homo sapiens, KARPAS-422, 336 h; KARPAS422, after 14 days of treatment; read-out: antiproliferative activities (IC50 values). Type of series: cell-based. Here is the method:
Analysis of Cell Proliferation
B cell lymphoma cell KARPAS422 was cultured using standard cell culture conditions in RPMI-1640 (Invitrogen, cat #11875) supplemented with 15% FBS (Invitrogen, cat #10099-141) in humidified incubator at 37° C., 5% CO2. To assess the effect of PRC2 inhibition on cell proliferation, exponentially growing cells were seeded at a density of 1×10^5 cells/mL in 12-well plate (Corning, cat #CLS3513). After cell seeding, a compound of the present invention was added to the cell media (in concentrations ranging from 0 to 100 μM, 3× dilution series). Viable cell numbers were determined every 3-4 days for up to 14 days using Vi-CELL (Beckman Coulter). On days of cell counting, fresh growth media and compound were replenished and cells split back to a density of 1×10^5 cells/mL. Total cell number is expressed as split-adjusted viable cells per mL. The dose response curves and IC50 values were generated using Prism.

Series [6] is described as follows: Stability of solid form to humidity and temperature. Type of series: physicochemical. Here is the method: Dynamic vapor sorption was performed on a Surface Measurement Systems DVS Advantage instrument. Approximately 10 mg of material was loaded into a sample pan. The samples were exposed to sorption/desorption cycles in 10% relative humidity (RH) steps over the range of 50%-90%-0%-90%-50% RH at 25° C. and 50° C. A target equilibrium condition of mass change less than 0.002% over 5 min was set, with minimum and maximum equilibrium periods of 10 and 360 min, respectively. The carrier gas was nitrogen with a flow rate of 100 mL/min. The system is calibrated with saturated salt solutions. The weight percentage change (wt %) of the sample at each stage was measured and plotted versus the target partial pressure.

The mark [7] stands for this setting: aqueous with cosolvent or surfactant or cyclodextrin, Acetone/H2O (1/1).
Where [8] appears, read: aqueous with cosolvent or surfactant or cyclodextrin, EtOH/H2O (1/1).
[9] abbreviates: organic solvent or mixture, ACN.
Setting [10] is: organic solvent or mixture, Acetone.
Setting [11] is: organic solvent or mixture, EtOAc.
Setting [12] is: organic solvent or mixture, EtOH.
Setting [13] is: organic solvent or mixture, Heptane.
Where [14] appears, read: organic solvent or mixture, IPA.
Where [15] appears, read: organic solvent or mixture, MTBE.
Where [16] appears, read: organic solvent or mixture, MeOH.
[17] abbreviates: organic solvent or mixture, THF.

`Cc1ncccc1-c1cnc(NCc2c(F)ccc3c2CCO3)n2cnnc12` [Compound A, N-((5-Fluoro-2,3-dihydrobenzofuran-4-yl)methyl)-8-(2-methylpyridin-3-yl)-[1,2,4]triazolo[4,3-c]pyrimidin-5-amine]: the results for the IC50 in series [1] and in series [5] were 2.6 nM and 3 nM, respectively. Besides, the solubility at 2 h in series [2] (setting [7]), in series [2] (setting [8]), in series [2] (setting [9]), in series [2] (setting [10]), in series [2] (setting [11]) and in series [2] (setting [12]) was less than 10000 µg/mL each time. Also, the solubility at 2 h in series [2] (setting [13]), in series [2] (setting [14]), in series [2] (setting [15]), in series [2] (setting [16]), in series [2] (setting [17]) and in series [2] (Water) was less than 10000 µg/mL each time. Besides, the solubility in series [2] (setting [7]), in series [2] (setting [8]), in series [2] (setting [9]), in series [2] (setting [10]), in series [2] (setting [11]) and in series [2] (setting [12]) was less than 10000 µg/mL each time. In addition, the solubility in series [2] (setting [13]), in series [2] (setting [14]), in series [2] (setting [15]), in series [2] (setting [16]), in series [2] (setting [17]) and in series [2] (Water) was less than 10000 µg/mL throughout. In addition, the “exposure relative to dose” value in series [3] is listed as “under-proportional”. In addition, the aqueous solubility entry in series [4] (physiologically relevant pH level of 7.4) and in series [4] (simulated gastric fluid (SGF)) was “low” throughout.
With `Cc1ncccc1-c1cnc(NCc2c(F)ccc3c2CCO3)n2cnnc12.Cl` [Compound X, N-((5-Fluoro-2,3-dihydrobenzofuran-4-yl)methyl)-8-(2-methylpyridin-3-yl)-[1,2,4]triazolo[4,3-c]pyrimidin-5-amine hydrochloride], the solubility at 2 h was greater than 50000 µg/mL in series [2] (setting [7]); greater than 50000 µg/mL in series [2] (setting [8]); less than 10000 µg/mL in series [2] (setting [9]); less than 10000 µg/mL in series [2] (setting [10]); less than 10000 µg/mL in series [2] (setting [11]); less than 10000 µg/mL in series [2] (setting [12]). Besides, the solubility at 2 h in series [2] (setting [13]) is less than 10000 µg/mL; in series [2] (setting [14]) it was less than 10000 µg/mL; in series [2] (setting [15]), less than 10000 µg/mL; in series [2] (setting [16]), greater than 10000 µg/mL; in series [2] (setting [17]), less than 10000 µg/mL; in series [2] (Water) it was less than 10000 µg/mL. Further, the solubility is less than 50000 µg/mL in series [2] (setting [7]); less than 50000 µg/mL in series [2] (setting [8]); less than 10000 µg/mL in series [2] (setting [9]); less than 10000 µg/mL in series [2] (setting [10]); less than 10000 µg/mL in series [2] (setting [11]); less than 10000 µg/mL in series [2] (setting [12]). Moreover, the solubility in series [2] (setting [13]) is less than 10000 µg/mL; in series [2] (setting [14]), less than 10000 µg/mL; in series [2] (setting [15]) it was less than 10000 µg/mL; in series [2] (setting [16]), greater than 10000 µg/mL; in series [2] (setting [17]), less than 10000 µg/mL; in series [2] (Water), less than 10000 µg/mL. The “exposure relative to dose” value in series [3] is “dose-proportional”.
For the compound `Cc1ncccc1-c1cnc(NCc2c(F)ccc3c2CCO3)n2cnnc12.Cl` [Form HA, N-((5-Fluoro-2,3-dihydrobenzofuran-4-yl)methyl)-8-(2-methylpyridin-3-yl)-[1,2,4]triazolo[4,3-c]pyrimidin-5-amine hydrochloride], the “stability to humidity and temperature” value in series [6] is “acceptable stability”.
